What was measured:
[1] = target: T1, X-β homomeric channels (Bos taurus, UniProt Q00194, A200G/A344S/A378F/A555S/A582V/A612E/C169F/D157S/D193E/D502E/D538A/D577E/D588Q/D604M/DEL101-144/DEL91-95/E147F/E148K/E189Q/E196F/E230D/E231L/F201L/F214C/F374V/F533Y/G160D/G591A/G605N/I156V/I181L/I182V/I235R/I504V/I530V/I566L/I609V/I611A/INS98[…]/K146T/K150R/K151W/K237N/K239I/K346C/K506R/K518R/K521Q/K554M/K590Q/K598R/L195F/L199V/L210I/L351F/L548I/L593M/L606K/M175L/M213T/M580R/M592V/M602L/N161D/N165Y/N613A/P158Q/P173A/Q599E/Q97T/R232A/R345F/R369K/S192D/S205C/S240R/S350C/S371E/S537G/S540L/S553N/T162I/T171A/T179I/T217L/T364M/T584S/V153G/V154F/V174S/V208I/V215I/V487E/V497T/V534A/Y194N/Y197L); test: Macroscopic current dose–response in inside-out patches from Xenopus oocytes; format: cell-based, chimera of bovine CNG1, catfish CNG2 and rat CNG5; conditions: for Hill coefficient h: −100 mV
T1 sequence (Q00194 with tags, fused parts or gaps DEL91-95/Q97T/INS98[…]/DEL101-144/K146T/E147F/E148K/K150R/K151W/V153G/V154F/I156V/D157S/P158Q/G160D/N161D/T162I/N165Y/C169F/T171A/P173A/V174S/M175L/T179I/I181L/I182V/E189Q/S192D/D193E/Y194N/L195F/E196F/Y197L/L199V/A200G/F201L/S205C/V208I/L210I/M213T/F214C/V215I/T217L/E230D/E231L/R232A/I235R/K237N/K239I/S240R/A344S/R345F/K346C/S350C/L351F/T364M/R369K/S371E/F374V/A378F/V487E/V497T/D502E/I504V/K506R/K518R/K521Q/I530V/F533Y/V534A/S537G/D538A/S540L/L548I/S553N/K554M/A555S/I566L/D577E/M580R/A582V/T584S/D588Q/K590Q/G591A/M592V/L593M/K598R/Q599E/M602L/D604M/G605N/L606K/I609V/I611A/A612E/N613A): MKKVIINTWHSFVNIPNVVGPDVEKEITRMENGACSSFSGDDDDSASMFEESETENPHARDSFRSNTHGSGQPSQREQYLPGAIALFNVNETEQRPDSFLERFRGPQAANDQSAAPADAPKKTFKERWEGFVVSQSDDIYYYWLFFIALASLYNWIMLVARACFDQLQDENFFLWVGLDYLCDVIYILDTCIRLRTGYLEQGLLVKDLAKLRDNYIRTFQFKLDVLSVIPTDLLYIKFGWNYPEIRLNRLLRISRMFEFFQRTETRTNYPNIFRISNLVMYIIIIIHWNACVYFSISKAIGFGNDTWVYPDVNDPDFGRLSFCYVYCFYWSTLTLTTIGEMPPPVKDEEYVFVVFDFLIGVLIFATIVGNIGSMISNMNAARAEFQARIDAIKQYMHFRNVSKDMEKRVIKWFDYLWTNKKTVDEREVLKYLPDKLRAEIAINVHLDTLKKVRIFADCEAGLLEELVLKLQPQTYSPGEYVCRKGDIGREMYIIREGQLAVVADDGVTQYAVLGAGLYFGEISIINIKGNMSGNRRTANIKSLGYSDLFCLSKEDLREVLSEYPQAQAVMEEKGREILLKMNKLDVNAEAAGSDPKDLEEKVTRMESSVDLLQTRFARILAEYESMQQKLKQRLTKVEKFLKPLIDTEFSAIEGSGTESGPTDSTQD

[2] = target: T2, X-α homomeric channels (Bos taurus, UniProt Q00194, A200G/A344S/A378F/A555M/A614G/C169F/D157S/D193E/D538A/D604Q/DEL101-144/DEL91-95/E147F/E148K/E189Q/E196F/E230D/E231L/F201L/F214C/F374V/G160D/G591K/I156V/I181L/I182V/I235R/I530V/I609E/I611V/INS98[…]/K146T/K150R/K151W/K237N/K239I/K346C/K506R/K521Q/K551Q/K564R/K590Q/K596R/K598R/L195F/L199V/L210I/L351F/L583V/M175L/M213T/M592V/M602R/N161D/N165Y/N610S/N613A/P158Q/P173A/Q494R/Q599E/Q97T/R232A/R345F/R369K/R512K/S192D/S205C/S240R/S350C/S371E/S537T/S540G/T162I/T171A/T179I/T217L/T364M/T584A/V153G/V154F/V174S/V208I/V215I/V534A/V535L/Y194N/Y197L/Y541C); test: as above; format: cell-based, chimera of bovine CNG1 and catfish CNG2
T2 sequence (Q00194 with tags, fused parts or gaps DEL91-95/Q97T/INS98[…]/DEL101-144/K146T/E147F/E148K/K150R/K151W/V153G/V154F/I156V/D157S/P158Q/G160D/N161D/T162I/N165Y/C169F/T171A/P173A/V174S/M175L/T179I/I181L/I182V/E189Q/S192D/D193E/Y194N/L195F/E196F/Y197L/L199V/A200G/F201L/S205C/V208I/L210I/M213T/F214C/V215I/T217L/E230D/E231L/R232A/I235R/K237N/K239I/S240R/A344S/R345F/K346C/S350C/L351F/T364M/R369K/S371E/F374V/A378F/Q494R/K506R/R512K/K521Q/I530V/V534A/V535L/S537T/D538A/S540G/Y541C/K551Q/A555M/K564R/L583V/T584A/K590Q/G591K/M592V/K596R/K598R/Q599E/M602R/D604Q/I609E/N610S/I611V/N613A/A614G): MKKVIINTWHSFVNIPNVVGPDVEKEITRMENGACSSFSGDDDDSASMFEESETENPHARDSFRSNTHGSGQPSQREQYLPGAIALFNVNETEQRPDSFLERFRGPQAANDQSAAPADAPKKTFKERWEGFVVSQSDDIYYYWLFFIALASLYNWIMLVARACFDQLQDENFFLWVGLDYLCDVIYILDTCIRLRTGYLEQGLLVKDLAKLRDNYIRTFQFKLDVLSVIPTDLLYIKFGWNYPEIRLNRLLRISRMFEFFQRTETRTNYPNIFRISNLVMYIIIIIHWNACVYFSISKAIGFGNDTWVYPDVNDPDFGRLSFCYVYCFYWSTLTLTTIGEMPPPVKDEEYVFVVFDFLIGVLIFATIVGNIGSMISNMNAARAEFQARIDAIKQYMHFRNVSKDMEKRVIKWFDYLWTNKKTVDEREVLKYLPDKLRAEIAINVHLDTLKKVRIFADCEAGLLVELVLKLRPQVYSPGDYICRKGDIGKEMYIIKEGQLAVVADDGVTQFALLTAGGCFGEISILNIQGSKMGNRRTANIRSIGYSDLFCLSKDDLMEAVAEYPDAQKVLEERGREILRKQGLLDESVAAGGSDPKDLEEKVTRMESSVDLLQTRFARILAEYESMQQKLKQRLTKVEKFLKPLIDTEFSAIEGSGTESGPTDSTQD

agonist character ([1]; macroscopic currents): full agonists
Hill coefficient h ([1]; one patch (Fig. 1C), Hill fit ± SE): 1.94 ± 0.13
Hill coefficient h ([1]; mean ± SD of individual patches): 2.07 ± 0.27 (9)
agonist concentration at maximum of steady-state Popen dose–response curve [2]: ~3 mM
SMILES: Nc1nc2c(ncn2[C@@H]2O[C@@H]3COP(=O)([O-])O[C@H]3[C@H]2O)c(=O)[nH]1.[Na+] [cGMP]
Desensitization ([1]; agonist up to 30 mM): no evidence for this desensitization and No
Desensitization ([2]; agonist up to 30 mM): Yes
agonist concentration at which macroscopic current decays (desensitization) ([2]; steady-state level lower than in 3 mM cGMP): ≥ 10 mM

Reference: publication PMC2233835 (The Journal of General Physiology, 2001)
